From patent US12258339B2, “Macrocyclic complexes of alpha-emitting radionuclides and their use in targeted radiotherapy of cancer” (Cornell University, priority 2018, dated 2025)

Assay: In vivo biodistribution of ^225Ac complexes of macropa and DOTA and of ^225Ac(NO3)3 in mice
Set-up: species or system C57BL/6 mice
Experimental: In Vivo Biodistribution of ^225Ac Complexes of Macropa and DOTA. All experiments were approved by the Institutional Animal Care Committee (IACC) of the University of British Columbia and were performed in accordance with the Canadian Council on Animal Care Guidelines. A total of 9 female C57BL/6 mice (6-8 weeks old, 20-25 g) were used for the biodistribution study of each radiometal complex, n=3 for each time point.
Macropa (100 μL of a 1 mg/mL solution in NH4OAc) was diluted with 387 μL of NH4OAc (1 M, pH 7), and an aliquot (203 μL) of ^225Ac(NO3)3 (˜157 kBq) was then added; the pH of this solution was adjusted to 6.5-7 by the addition of 1 M NaOH (210 μL, trace metal grade). After 5 min at ambient temperature, the reaction solution was analyzed by TLC (0.4 M pH 4 sodium citrate as the eluent), which confirmed >95% radiochemical yield. The reaction was allowed to proceed overnight, and the radiochemical yield was again confirmed to be >95% the following morning. At this time, mice were anesthetized by 2% isoflurane, and approximately 100 μL (10-15 kBq) of the [^225Ac(macropa)]^+ complex were injected into the tail vein of each mouse. After injection, mice were allowed to recover and roam freely in their cages, and were euthanized by CO2 inhalation at 15 min, 1 h, or 5 h (n=3 at each time point) post-injection. Blood was collected by cardiac puncture and placed into an appropriate test tube for scintillation counting. Tissues collected included heart, liver, kidneys, lungs, small intestine, large intestine, brain, bladder, spleen, stomach, pancreas, bone, thyroid, tail, urine, and feces. Tissues were weighed and then counted with a calibrated gamma counter (Packard, Cobra II model 5002) using three energy windows: 60-120 keV (window A), 180-260 keV (window B), and 400-480 keV (window C). Counting was performed both immediately after sacrifice and after 7 days; counts were decay corrected from the time of injection and then converted to the percentage of injected dose (% ID) per gram of tissue (% ID/g). […]
The biodistribution studies of [^225Ac(DOTA)]^− and ^225Ac(NO3)3 were carried out as described above for [^225Ac(macropa)]^+, with the following modifications. [^225Ac(DOTA)^− was prepared by adding ^225Ac(NO3)3 (338 μL, 1.1 MBq) to a solution of DOTA (100 μg, 20 mg/mL in H2O) in NH4OAc (467 μL, 0.15 M, pH 7). The pH of the solution was adjusted to 7 using NH4OAc (150 μL, 1 M, pH 7) and the solution was heated at 85° C. for 45 min. RCY>99% was confirmed by TLC as described above. [^225Ac(DOTA)]^− was diluted with saline to a final concentration of 0.05 MBq/100 μL, and 100 μL were injected into each mouse. ^225Ac(NO3)3 (˜58 μL, 0.4 MBq) was diluted and injected in the same manner as [^225Ac(DOTA)]^−. One mouse that was to be euthanized at the 5 h time point in the [^225Ac(DOTA)]^− study died shortly after injection. In the same manner, one mouse that was to be euthanized at the 1 h time point in the ^225Ac(NO3)3 study died.
The in vivo stability [^225Ac(macropa)]^+ was examined by comparing its biodistribution to those of ^225Ac(NO3)3 and [^225Ac(DOTA)]^−. C57BL/6 mice were injected via tail vein with 10-50 kBq of each radiometal complex and were sacrificed after 15 min, 1 h, or 5 h. The amount of ^225Ac retained in each organ was quantified by gamma counting and reported as the percent of injected dose per gram of tissue (% ID/g). The results of these studies are compiled in Tables 1-3. Inadequate stability of an ^225Ac complex leading to the loss of radioisotope in vivo is manifested by the accumulation of ^225Ac in the liver, spleen, and bone of mice.^[11,12,32] […] The biodistribution profile of [^225Ac(macropa)]^+ (FIG. 3B) differs markedly from that of ^225Ac(NO3)3. […] Its biodistribution profile was similar to that of [^225Ac(DOTA)]^− (FIG. 3C), which has been previously shown to retain ^225Ac in vivo.^[7]

[1] = 15 min after i.v. injection, energy window A (60-120 keV)
[2] = 15 min after i.v. injection, energy window C (400-480 keV)
[3] = 1 h after i.v. injection, energy window A (60-120 keV)
[4] = 1 h after i.v. injection, energy window B (180-260 keV)
[5] = 1 h after i.v. injection, energy window C (400-480 keV)
[6] = 5 h after i.v. injection, energy window A (60-120 keV)
[7] = 5 h after i.v. injection, energy window B (180-260 keV)
[8] = 5 h after i.v. injection, energy window C (400-480 keV)

O=C([O-])c1cccc(CN2CCOCCOCCN(Cc3cccc(C(=O)[O-])n3)CCOCCOCC2)n1.[225Ac+3] [[^225Ac(macropa)]^+]
Organ distribution: brain [1]: 0.26 % ID/g
Organ distribution: feces [1]: 0.91 % ID/g
Organ distribution: large intestines [1]: 2.40 % ID/g
Organ distribution: brain (15 min after i.v. injection, energy window B (180-260 keV)): 0.23 % ID/g
Organ distribution: brain [2]: 0.17 % ID/g
Organ distribution: pancreas [2]: 3.00 % ID/g
Organ distribution: blood [3]: 0.40 % ID/g
Organ distribution: bone (femur + joint) [3]: 0.31 % ID/g
Organ distribution: brain [3]: 0.12 % ID/g
Organ distribution: feces [3]: 0.28 % ID/g
Organ distribution: heart [3]: 0.31 % ID/g
Organ distribution: large intestines [3]: 0.36 % ID/g
Organ distribution: liver [3]: 0.75 % ID/g
Organ distribution: lungs [3]: 0.51 % ID/g
Organ distribution: pancreas [3]: 0.19 % ID/g
Organ distribution: small intestines [3]: 1.10 % ID/g
Organ distribution: spleen [3]: 0.51 % ID/g
Organ distribution: stomach [3]: 0.41 % ID/g
Organ distribution: blood [4]: 0.39 % ID/g
Organ distribution: bone (femur + joint) [4]: 0.17 % ID/g
Organ distribution: brain [4]: 0.12 % ID/g
Organ distribution: feces [4]: 0.27 % ID/g
Organ distribution: heart [4]: 0.20 % ID/g
Organ distribution: large intestines [4]: 0.22 % ID/g
Organ distribution: liver [4]: 0.70 % ID/g
Organ distribution: lungs [4]: 0.54 % ID/g
Organ distribution: pancreas [4]: 0.12 % ID/g
Organ distribution: small intestines [4]: 0.94 % ID/g
Organ distribution: spleen [4]: 0.23 % ID/g
Organ distribution: stomach [4]: 0.33 % ID/g
Organ distribution: thyroids [4]: 0.10 % ID/g
Organ distribution: bladder [5]: 9.00 % ID/g
Organ distribution: blood [5]: 0.54 % ID/g
Organ distribution: bone (femur + joint) [5]: 0.70 % ID/g
Organ distribution: brain [5]: 0.23 % ID/g
Organ distribution: feces [5]: 0.69 % ID/g
Organ distribution: heart [5]: 0.23 % ID/g
Organ distribution: large intestines [5]: 0.79 % ID/g
Organ distribution: lungs [5]: 0.84 % ID/g
Organ distribution: pancreas [5]: 0.43 % ID/g
Organ distribution: spleen [5]: 0.48 % ID/g
Organ distribution: stomach [5]: 0.17 % ID/g
Organ distribution: blood [6]: 0.01 % ID/g
Organ distribution: bone (femur + joint) [6]: 0.05 % ID/g
Organ distribution: brain [6]: 0.02 % ID/g
Organ distribution: heart [6]: 0.10 % ID/g
Organ distribution: kidneys [6]: 0.74 % ID/g
Organ distribution: large intestines [6]: 0.49 % ID/g
Organ distribution: liver [6]: 0.39 % ID/g
Organ distribution: lungs [6]: 0.01 % ID/g
Organ distribution: pancreas [6]: 0.10 % ID/g
Organ distribution: small intestines [6]: 0.29 % ID/g
Organ distribution: spleen [6]: 0.11 % ID/g
Organ distribution: stomach [6]: 0.01 % ID/g
Organ distribution: tail [6]: 0.14 % ID/g
Organ distribution: thyroids [6]: 0.10 % ID/g
Organ distribution: blood [7]: 0.00 % ID/g
Organ distribution: bone (femur + joint) [7]: 0.02 % ID/g
Organ distribution: brain [7]: −0.01 % ID/g
Organ distribution: heart [7]: −0.04 % ID/g
Organ distribution: kidneys [7]: 0.78 % ID/g
Organ distribution: large intestines [7]: 0.45 % ID/g
Organ distribution: liver [7]: 0.36 % ID/g
Organ distribution: lungs [7]: −0.05 % ID/g
Organ distribution: pancreas [7]: −0.12 % ID/g
Organ distribution: small intestines [7]: 0.29 % ID/g
Organ distribution: spleen [7]: 0.09 % ID/g
Organ distribution: stomach [7]: 0.04 % ID/g
Organ distribution: tail [7]: 0.13 % ID/g
Organ distribution: blood [8]: 0.04 % ID/g
Organ distribution: bone (femur + joint) [8]: 0.08 % ID/g
Organ distribution: brain [8]: −0.01 % ID/g
Organ distribution: heart [8]: 0.28 % ID/g
Organ distribution: large intestines [8]: 0.68 % ID/g
Organ distribution: liver [8]: 0.55 % ID/g
Organ distribution: lungs [8]: 0.15 % ID/g
Organ distribution: pancreas [8]: 0.13 % ID/g
Organ distribution: small intestines [8]: 0.42 % ID/g
Organ distribution: spleen [8]: 0.43 % ID/g
Organ distribution: stomach [8]: 0.13 % ID/g
Organ distribution: tail [8]: 0.28 % ID/g
blood clearance and excretion (in words) (i.v. injection, up to 5 h): rapidly cleared from mice
organ accumulation (in words) (i.v. injection, up to 5 h): did not accumulate in any organ
